In brackets after ≈: the same amount, converted by molar mass.
What was measured:
[1] = Storage stability of crystalline form in a sealed container; assay type: physicochemical
Description: First, by allowing fine crystals of Form 1 to be exposed to atmospheric humidity for several days, a monohydrate of Form 1 is produced with an appearance of a solidified gum. After grinding the monohydrate solid to a fine powder, the XRPD pattern remains consistent with Form 1. Upon standing in an open vessel for 6-10 weeks, the ground material slowly changes to Form 6 as an anhydrous solid. Form 1 is stable for at least 2 years in a sealed container.

[2] = Stability at elevated temperatures and relative humidity; assay type: physicochemical
Procedure: A sample of RP-4 was stored in a humidity chamber at 40° C. and 75% relative humidity for one week, and the sample was reanalyzed by XRPD. […] This should be contrasted to a sample of 4, which deliquesced within about 16 hours upon storage at 40° C. and 75% relative humidity. Indeed, an illustration of the deliquescent nature of 4 is illustrated by the following. A sample of 4 was passed through a 250 μm sieve then samples were stored at 40° C./75% RH and 25° C./53% relative humidity and visual observations were taken at regular intervals.
Upon storage at 40° C. and 75% relative humidity a sample of SP-4 deliquesced inside 16 hours. For instance, a sample of SP-4 was ground with a pestle and mortar, and then successively passed through 500 and 250 μm sieves to yield the sample as a fine powder. Samples of this material were stored at 40° C. and 75% relative humidity and 25° C. and 53% RH and visual observations were taken at regular intervals.

[3] = system: HCV replication; test: HCV replicon assay (firefly luciferase reporter); assay type: cell-based, hepatitis C virus; conditions: replicon containing cells, 4 days incubation, Bright-Glo firefly luciferase reporter
Procedure: Replicon containing cells were seeded at either 3,000 cells/well (50 μL) in 96-well white/opaque plates, or 1,500 cells/well (25 μL) in 384-well white/opaque plates. 50 μL of 2× compound were added in the 96 well plate or 25 μL of 2× compound were added in the 384 well plate. The plates were incubated at 37° C. in a humidified 5% CO2 atmosphere for 4 days. After incubation, Bright-Glo reagent (50 μL for 96-well plate, or 25 μL for 384-well plate) was added to measure the firefly luciferase reporter for HCV replication. Percent inhibition was calculated against the no drug control.

[4] = Thermodynamic aqueous solubility; assay type: physicochemical; conditions: for pH of Unfiltered mixture: aqueous suspension after 24 hours at 25° C.; for solubility at 24 h / Solubility: water; for solubility at 24 h: 25 °C, thermodynamic from solid, summary of batch characterization (Table 16), read-out: Aq Solubility; for Solubility: equilibrated at 25° C. for 24 hours, HPLC quantitation
Procedure: Aqueous solubility was determined by suspending a sufficient amount of compound in water to give a maximum final concentration of >10 mg·ml^−1 of the parent free-form of the compound. The suspension was equilibrated at 25° C. for 24 hours then the pH was measured. The suspension was then filtered through a glass fiber C filter into a 96 well plate. The filtrate was then diluted by a factor of 101. Quantitation was by HPLC with reference to a standard solution of approximately 0.1 mg·ml^−1 in DMSO. Different volumes of the standard, diluted and undiluted sample solutions were injected. The solubility was calculated using the peak areas determined by integration of the peak found at the same retention time as the principal peak in the standard injection.
Analysis was performed under the above-noted conditions on an Agilent HP1100 series system equipped with a diode array detector and using ChemStation software vB.02.01-SR1.

[5] = system: hepatitis C virus, genotypes 1-4; test: Genotype coverage
[6] = Gravimetric vapour sorption (GVS); assay type: physicochemical; conditions: 25° C.
Procedure: Sorption isotherms were obtained using a SMS DVS Intrinsic moisture sorption analyzer, controlled by SMS Analysis Suite software. The sample temperature was maintained at 25° C. by the instrument controls. The humidity was controlled by mixing streams of dry and wet nitrogen, with a total flow rate of 200 ml·min^−1. The relative humidity was measured by a calibrated Rotronic probe (dynamic range of 1.0-100% RH), located near the sample. The weight change, (mass relaxation) of the sample as a function of % RH was constantly monitored by the microbalance (accuracy ±0.005 mg).
Typically 5-20 mg of sample was placed in a tared mesh stainless steel basket under ambient conditions. The sample was loaded and unloaded at 40% RH and 25° C. (typical room conditions). A moisture sorption isotherm was performed as outlined below (2 scans giving 1 complete cycle). The standard isotherm was performed at 25° C. at 10% RH intervals over a 0.5-90% RH range.
The sample was recovered after completion of the isotherm and re-analyzed by XRPD.
A sample of SP-4 was ground with a pestle and mortar, and then successively passed through 500 and 250 μm sieves to yield the sample as a fine powder that was then analyzed using a modified single cycle method. The sample was taken from 40% RH (approximately ambient) to 60% RH, instead of 90% for the standard method, and then cycled to 0% and back to 40% RH.

[7] = summary of batch characterization (Table 16)

| SMILES | stable in a sealed container [1] | time to deliquescence upon storage ([2]; 40° C. and 75% relative humidity) [h] | 25° C./53% RH (stability summary) [2, 7] | HCV Replicon Activity [3] [µM] | pH of Unfiltered mixture [4] | solubility at 24 h [4] [µg/mL] | Solubility [4] [mg. m1^−1] | activity against hepatitis C virus, genotypes 1-4 (broad genotype coverage) [5] | visual observation (stability to elevated relative humidity) ([2]; 40° C./75% RH, t = 4.5 h) | change in solid form by XRPD after storage ([2]; 40° C. and 75% relative humidity for one week) | 40° C./75% RH (stability summary) [2, 7] | hygroscopicity by GVS analysis [6] | reversible uptake of water ([6]; from 0 to 90% relative humidity) |
| --- | --- | --- | --- | --- | --- | --- | --- | --- | --- | --- | --- | --- | --- |
| CC(C)OC(=O)[C@H](C)N[P@](=O)(OC[C@H]1O[C@@H](n2ccc(=O)[nH]c2=O)[C@](C)(F)[C@@H]1O)Oc1ccccc1 [Form 1] | at least 2 years |  |  |  |  |  |  |  |  |  |  |  |  |
| CC(C)OC(=O)[C@H](C)NP(=O)(OC[C@H]1O[C@@H](n2ccc(=O)[nH]c2=O)[C@](C)(F)[C@@H]1O)Oc1ccccc1 (stereo partly drawn) [Compound 4, (S)-2-{[(1R,4R,5R)-5-(2,4-Dioxo-3,4-dihydro-2H-pyrimidin-1-yl)-4-(R)-fluoro-3-hydroxy-4-methyl-tetrahydro-furan-2-ylmethoxy]-phenoxy-phosphorylamino}-propionic acid isopropyl ester] |  | ≤ 16 | Deliquescence | 0.58 | 7.03 | 6110 (≈ 11.5 mM) | 6.11 |  |  |  |  |  |  |
| CC(C)OC(=O)[C@H](C)N[P@](=O)(OC[C@H]1O[C@@H](n2ccc(=O)[nH]c2=O)[C@](C)(F)[C@@H]1O)Oc1ccccc1 [SP-4, (S)-Isopropyl 2-((S)-(((2R,3R,4R,5R)-5-(2,4-dioxo-3,4-dihydropyrimidin-1(2H)-yl)-4-fluoro-3-hydroxy-4-methyltetrahydrofuran-2-yl)methoxy)(phenoxy)phosphorylamino)propanoate] |  |  | No form change | 0.13 |  | 5650 (≈ 10.7 mM) | 5.65 | active | Deliquescence |  |  |  |  |
| CC(C)OC(=O)[C@H](C)N[P@@](=O)(OC[C@H]1O[C@@H](n2ccc(=O)[nH]c2=O)[C@](C)(F)[C@@H]1O)Oc1ccccc1 (single isomer, unassigned) [RP-4] |  |  |  | 2.87 | 7.12 | 1580 (≈ 2.98 mM) | 1.58 | active |  | no change in solid form was observed | No form change | non-hygroscopic | approximately 0.2 wt % |
